Consider one compound from publication PMC7006784, “The combination of salvianolic acid A with latamoxef completely protects mice against lethal pneumonia caused by methicillin-resistant Staphylococcus aureus” (Emerging Microbes & Infections, 2020).

For one experiment, the system named is S. aureus. Put plainly: Anti-S. aureus activity (MIC by broth microdilution, growth curve). The class given is cell-based. On the procedure: The minimum inhibitory concentration (MIC) of Sal A was determined by broth microdilution according to the NCCLS guidelines. Briefly, overnight cultures of S. aureus were diluted 1:100 with fresh Brain Heart Infusion (BHI) medium supplemented with or without 256 μg/ml Sal A and grown at 37°C with shaking. Absorbance readings were obtained at OD600 at different time intervals.

Experiment [1] relates to S. aureus protein A (SpA). Put plainly: Flow cytometry of FITC-IgG-stained S. aureus (SpA anchoring). The class given is cell-based. The note with it: untreated WT 108.58. On the procedure: To quantify the effect of the Sal A on the anchoring of SpA, the FITC-IgG-stained S. aureus was measured by flow cytometry. S. aureus strains were grown overnight and then were diluted 1:100 in BHI broth with or without Sal A and grown until the OD600 reached 1.0. Then, bacteria were harvested by centrifugation at 2,500 × g for 10 min. The collected pellets were washed once with PBS and were incubated in PBS solution containing 0.2% BSA (wt/vol) for 10 min. Afterward, bacteria were washed thrice and then suspended in PBS containing FITC-labelled rabbit anti-goat-IgG at a dilution of 1:50 and incubated at 37°C in the dark for 60 min. After a thorough washing, bacteria were fixed with formaldehyde (2%, vol/vol) for 10 min at room temperature. Fluorescence signal was detected on a FACSCanto flow cytometer (Becton Dickinson, USA) and analyzed using FACSDiva software.

In the next experiment the test system is T1, A92L-SrtA.
T1 construct: The gene encoding SrtA (lacking the N-terminal transmembrane domain (N1–59)); 6xHis (N); made in house
Put plainly: Fluorescence quenching assay, A92L-SrtA. The note with it: fluorescence spectroscopy quenching. Type of experiment: binding, S. aureus. On the procedure: The fluorescence quenching assay was performed as previously described. Briefly, purified SrtA and mutant protein were diluted to 500 ng/ml with PBS. A total of 2.5 ml diluted protein solution was mixed with Sal A at different concentrations ranging from 0 to 4.5 μg. After incubation for 10 min, the fluorescence spectra of the mixed solutions were measured using a fluorescence spectrophotometer (RF5301, Japan). For the fluorescence measurement, the excitation and emission slits were set at 5.0 nm, the excitation wavelength was set at 280 nm, and fluorescence emission spectra in the range of 290–500 nm were scanned; the fluorescence intensity at 340 nm was recorded. All assays were performed in triplicate.

Marks after values point to notes of the source that are not given here.

As to `O=C(/C=C/c1ccc(O)c(O)c1/C=C/c1ccc(O)c(O)c1)O[C@H](Cc1ccc(O)c(O)c1)C(=O)O` [Sal A, (2R)-3-(3,4-Dihydroxyphenyl)-2-[(E)-3-[2-[(E)-2-(3,4-dihydroxyphenyl)ethenyl]-3,4-dihydroxyphenyl]prop-2-enoyl]oxypropanoic acid], in the experiment on S. aureus (40-fold the IC50 (up to 200 μM), growth curve with 256 μg/ml), the “growth of S. aureus” value was “did not inhibit the growth”. In addition, the MIC (in general, the lowest concentration that inhibits growth of the organism) in the experiment with S. aureus (Staphylococcus aureus, broth microdilution) was above 1020 µg/mL. For the same compound, the “mean value of fluorescence yield (Marker: All)” value in experiment [1] was 13.64. Besides, the KA in the experiment with A92L-SrtA is on record as 3.78 (1 × 10^4) l/mol.
